Test system: rabbit platelet
Experiment: Effect on 9,11-azo PGH2 induced aggregation of rabbit platelet in vitro
Assay type: cell-based
Details: Oryctolagus cuniculus, rabbit PRP, 9,11-azo PGH2 final 1.0 μM, 37° C., 2 minutes preincubation, read-out: IC50 (Inhibition concentration of platelet aggregation by 50%)
Source text: In the following tests, the used 9, 11-azo PGH2 and 9,11-methanoepoxy PGH2 (U46619) are characterized pharmacologically as TXA2 mimetic agents and widely used for evaluating TXA2 antagonism of test compounds (for example, vida The Journal of Pharmacology and Experimental Therapeutics Vol. 234, pp 435-441).
Test 1 (Effect on 9,11-azo PGH2 induced aggregation of rabbit platelet in vitro)
In the in vitro experiments, the blood was collected from the carotid artery of rabbits into plastic vessels containing 0.1 volume of 3.8% aqueous sodium citrate. Platelet rich plasma (PRP) was prepared by centrifugation at 150 g for 15 minutes. Platelet aggregation was investigated using the turbidometric method with an aggregometer (NKK HEMATRACER 1). To the 225 μl of PRP, 25 μl of test compound solution was added, and then stirred at 1000 rpm for 2 minutes at 37° C. To the solution, 5 μl of 9,11-azo PGH2 (final 1.0 μM) was added as an aggregating inducer. IC50 (Inhibition concentration of platelet aggregation by 50%) were graphically determined.

IC50: 260 nM
Structure (SMILES): C[C@@H]1OC[C@H](C/C=C\CCCC(=O)O)[C@H](C=NNC(=O)Nc2ccccc2)O1 [Test compound 2]
